What was measured:
[1] = system: Haemaphysalis longicornis; assay: Test Example 11: coated screw tube, nymphal ticks Haemaphysalis longicornis; type: in vivo; conditions: 2 mg compound in 0.2 mL acetone coated on inner wall of screw tube, non-blood-sucking nymphal ticks, after 2 days
Description: 2 mg of each of Compounds of Present Invention 1, 2, 13, 20, 21, 45 to 47, 52 to 55 and 57 and Intermediate Compound M6-13 was weighed in a screw tube (Maruemu No. 5; 27×55 mm), and 0.2 mL of acetone was added thereto and sealed with a cap to dissolve the compound. The screw tube was rotated and inverted to uniformity coat the drug solution onto the whole inner wall of the tube. After removing the cap, the solution was air-dried for about 2 hours, then non-blood-sucking nymphal ticks, Haemaphysalis longicornis (5 ticks/group) were released, and the tube was sealed with the cap. After 2 days, the number of dead ticks was examined, and the mortality was calculated according to the following equation: Mortality (%)=100×(Number of dead ticks/Number of tested ticks).

Musca domestica = assay: Test Example 8: treated filter paper with sucrose bait, Musca domestica female adults; type: in vivo; conditions: 500 ppm, 0.7 ml on filter paper, after 24 hours
Description: The formulations of Compounds of Present Invention 1 to 3, 9, 13 to 16 and 57 as obtained in Formulation Example 5 were diluted with water, so as to have a concentration of the active ingredient of 500 ppm, to prepare a diluted liquid for test.
A filter paper having a diameter of 5.5 cm was spread on the bottom of a polyethylene cup having the same diameter and 0.7 ml of the diluted liquid for test was added dropwise onto the filter paper, and 30 mg of sucrose was uniformly placed as bait. Into the polyethylene cup, 10 female adults of Musca domestica were released, and the cup was sealed with a lid. After 24 hours, survived and dead number of Musca domestica was examined, and the mortality was calculated.

CC[S+]([O-])c1cc(C(F)(F)F)ccc1C(=O)N(C)c1ccc(C(F)(F)C(F)(F)F)cn1 (stereo not shown) [compound 20]
mortality [1]: 100%

CC[S+]([O-])c1cc(C(F)(F)F)ccc1C(=O)N(C)c1ccc(SC(F)(F)F)cn1 (stereo not shown) [compound 21]
mortality [1]: 100%

CC[S+]([O-])c1ccccc1C(=O)N(C)c1ccc(SC(F)(F)F)cn1 (stereo not shown) [compound 57]
mortality (Musca domestica): 100%

CCSc1ccccc1C(=O)N(C)c1ccc(C(F)(F)C(F)(F)F)cn1 [compound 13]
mortality [1]: 100%

Source: US9392791B2, “Amide compound and use thereof for pest control” (Sumitomo Chemical Company, priority 2012, dated 2016)
